# Measured values: patent publication US20120121545A1, “Pharmaceutical Composition For Bone Disease Treatment Or Countering Inflammation, Comprising Cartilage Stem Cells As An Active Principle” (CoreStem Co., Ltd., priority 2009, published 2012)
# Tests used:
# Type in all cases: in vivo, Sprague-Dawley rats
# [1] = system: osteoarthritis-induced rats; assay: Histopathological analysis of knee cartilage: Mankin score; conditions: diclofenac sodium 2 mg/kg subcutaneously once a day for 84 days
# Description: (§1) One hundred and twenty (120) 6-week-old male Sprague-Dawley rats (SLC, Japan) were used for test after accommodation for 7 days. All the test animals were kept in a polycarbonate cage, four or five each, and reared in a laboratory with temperature (20-25° C.) and humidity (40-45%) controlled. The light/dark cycle was 12 hours:12 hours, and feed (Samyang Corporation, Korea) and drinking water well provided freely. All the test animals had been fasted for at least 18 hours before sacrificing. They were treated according to “Guide for the Care and Use of Laboratory Animals by Institute of Laboratory Animal Resources, Commission on Life Science, National Research Council, USA on 1996, Washington D.C.”. On day 7 after joint surgery, the rats were grouped into 7 groups as described in Table 4 based on joint thickness and body weight. 8 rats were selected from each group (56 in total) for test.
# (§2) The cells were suspended in CSBM at four different concentrations (high concentration: 9.6×10^6 cells/rat, intermediate high concentration: 4.8×10^6 cells/rat, intermediate low concentration: 2.4×10^6 cells/rat, low concentration: 1.2×10^6 cells/rat). […] For the normal group and the osteoarthritis-induced control group, only the CSBM was administered into the articular capsule.
# For histopathological observation and analysis of the cartilage Mankin score and cartilage thickness were measured (Table 9). Mankin score is frequently used to evaluate arthritis. A higher score is known to be related with higher inducement of osteoarthritis (Armstrong et al., 1994; Rezende et al., 2006).
# The articular capsule taken from the knee joint of each control group and test group was fixed for 5 days in 10% neutral-buffered formalin (NBF) and decalcified in decalcifying solution (24.4% formic acid, and 0.5 N sodium hydroxide). The decalcifying solution was replaced once a day for 5 days. After the decalcification, the median joint parts of the articular capsule were cut transversely and embedded in paraffin. After preparing 3-4 μm thick tissue sections, followed by deparaffinization and hydration, the cartilage was observed after hematoxylin & eosin (H&E) staining and safranin O staining (Camplejohn and Allard, 1988; Kahveci et al., 2000; Tran et al., 2000).
# Mankin score was measured by comparing damage to the knee joint tissue with that of the normal control group. Cartilage thickness of the tibia and the femur was measured by histomorphometry using an automatic image analyzer (DMI-300, DMI, Korea).
# Mankin Score is Given by the Sum.
# Percent change (%) between the cell administration group and the osteoarthritis-induced control group=[(Value of the cell administration group−Value of the osteoarthritis-induced control group)/Value of the osteoarthritis-induced control group]×100 Equation 2
# [2] = system: osteoarthritis-induced rats; assay: Change in knee joint thickness, osteoarthritis-induced rats; conditions: diclofenac sodium 2 mg/kg subcutaneously once a day for 84 days
# Description: One hundred and twenty (120) 6-week-old male Sprague-Dawley rats (SLC, Japan) were used for test after accommodation for 7 days. All the test animals were kept in a polycarbonate cage, four or five each, and reared in a laboratory with temperature (20-25° C.) and humidity (40-45%) controlled. The light/dark cycle was 12 hours:12 hours, and feed (Samyang Corporation, Korea) and drinking water well provided freely. All the test animals had been fasted for at least 18 hours before sacrificing. They were treated according to “Guide for the Care and Use of Laboratory Animals by Institute of Laboratory Animal Resources, Commission on Life Science, National Research Council, USA on 1996, Washington D.C.”. On day 7 after joint surgery, the rats were grouped into 7 groups as described in Table 4 based on joint thickness and body weight. 8 rats were selected from each group (56 in total) for test. […] The joint thickness of the rats in the control groups and test groups was measured using calipers. […] Percent change between the normal control group and the osteoarthritis-induced control group was calculated by Equation 1 in order to evaluate the degree of inducement of osteoarthritis. Also, percent change between the cell administration group and the osteoarthritis-induced control group was calculated by Equation 2 in order to more clearly represent the efficacy of the administered cells. […]
# [3] = system: osteoarthritis-induced rats; assay: Growth of chondrocytes in knee cartilage (BrdU labelling); conditions: diclofenac sodium 2 mg/kg subcutaneously once a day for 84 days
# Description: as §1, §2
# Chondrocytes growing in the articular capsule were labeled with BrdU in order to investigate their growth due to the administration of the cartilage-derived stem cells. Since the cells labeled with BrdU are those grown after the injection of BrdU, the growth of chondrocytes can be analyzed.
# 5-Bromo-2′-deoxyuridine (50 mg/kg, BrdU, MP Biomedicals, OH, USA) diluted in physiological saline to a concentration of 2 mL/kg was intraabdominally injected once 72 hours before the sacrificing of the rats of the control groups and test groups. Then, immunohistochemical staining was performed using BrdU antibody (Hwang et al., 2000; Moore et al., 2005; Ganey et al., 2003; Ito et al., 1998; Tang et al., 2007).
# The expression pattern of BrdU was investigated using the Vector Elite ABC kit (Vector Lab. Inc., CA., USA). After washing the tissue with DPBS, reaction was performed in 3% hydrogen peroxide (H2O2) solution for 30 minutes at room temperature. After washing with DPBS, reaction was performed for 30 minutes using normal horse serum (1:100, Vector Lab. Inc., CA, USA) in order to prevent nonspecific reaction that might occur during the staining. […] The number of cells responding to BrdU antibody by 10% or more was counted. From a total of 100 chondrocytes on the articular surface of the tibia and the femur, the percentage of BrdU-positive cells was measured using an automatic image analyzer. […]
# [4] = system: osteoarthritis-induced rats; assay: Knee cartilage thickness by histomorphometry; conditions: diclofenac sodium 2 mg/kg subcutaneously once a day for 84 days
# Description: The articular capsule taken from the knee joint of each control group and test group was fixed for 5 days in 10% neutral-buffered formalin (NBF) and decalcified in decalcifying solution (24.4% formic acid, and 0.5 N sodium hydroxide). The decalcifying solution was replaced once a day for 5 days. After the decalcification, the median joint parts of the articular capsule were cut transversely and embedded in paraffin. […]
# Mankin score was measured by comparing damage to the knee joint tissue with that of the normal control group. Cartilage thickness of the tibia and the femur was measured by histomorphometry using an automatic image analyzer (DMI-300, DMI, Korea). […]
# [5] = system: osteoarthritis-induced rats; assay: Change in maximum knee joint angle, osteoarthritis-induced rats; conditions: diclofenac sodium 2 mg/kg subcutaneously once a day for 84 days; after 84 days
# Description: One hundred and twenty (120) 6-week-old male Sprague-Dawley rats (SLC, Japan) were used for test after accommodation for 7 days. All the test animals were kept in a polycarbonate cage, four or five each, and reared in a laboratory with temperature (20-25° C.) and humidity (40-45%) controlled. The light/dark cycle was 12 hours:12 hours, and feed (Samyang Corporation, Korea) and drinking water well provided freely. All the test animals had been fasted for at least 18 hours before sacrificing. They were treated according to “Guide for the Care and Use of Laboratory Animals by Institute of Laboratory Animal Resources, Commission on Life Science, National Research Council, USA on 1996, Washington D.C.”. […]
# The administration groups of the drug and cell were sacrificed after 84 days. After taking out the right hind leg from the hip joint and removing nearby skin, connective tissues and muscles, the maximum knee joint angle was measured with the theoretical maximum as 0°. […]
# Percent change between the normal control group and the osteoarthritis-induced control group was calculated by Equation 1 in order to evaluate the degree of inducement of osteoarthritis. Also, percent change between the cell administration group and the osteoarthritis-induced control group was calculated by Equation 2 in order to more clearly represent the efficacy of the administered cells. […]
structure (smiles),measurement,setting,value
"O=C(O)Cc1ccccc1Nc1c(Cl)cccc1Cl [Control drug, diclofenac sodium]","Mankin score of the femur, decrease as compared to the osteoarthritis-induced control group",[1],27.85%
same,Mankin score of the femur: Clones,[1],2.38 ± 0.92
same,Mankin score of the femur: Hypocellularity,[1],1.38 ± 0.52
same,Mankin score of the femur: Safranin O,[1],1.25 ± 0.46
same,Mankin score of the femur: Sum (Max = 12),[1],7.13 ± 1.36
same,Mankin score of the femur: Surface,[1],2.13 ± 0.35
same,"Mankin score of the tibia, decrease as compared to the osteoarthritis-induced control group",[1],20.59%
same,Mankin score of the tibia: Clones,[1],1.75 ± 0.71
same,Mankin score of the tibia: Hypocellularity,[1],1.63 ± 0.52
same,Mankin score of the tibia: Safranin O,[1],1.38 ± 0.74
same,Mankin score of the tibia: Sum (Max = 12),[1],6.75 ± 1.16
same,Mankin score of the tibia: Surface,[1],2.00 ± 0.53
same,reduced knee joint thickness as compared to the osteoarthritis control group,[2],5.79%
same,"Number of BrdU-positive cells/100 chondrocytes, Femur",[3],8.63 ± 4.03 /100 chondrocytes
same,"Number of BrdU-positive cells/100 chondrocytes, Tibia",[3],8.13 ± 3.52 /100 chondrocytes
same,"number of BrdU-positive cells on the articular surface of the femur, increase as compared to the osteoarthritis-induced control group",[3],9.52%
same,"number of BrdU-positive cells on the articular surface of the tibia, increase as compared to the osteoarthritis-induced control group",[3],1.56%
same,"Knee cartilage thickness, Femur",[4],409.48 ± 69.80
same,"cartilage thickness of the femur, increase as compared to the osteoarthritis-induced control group",[4],35.11%
same,"cartilage thickness of the tibia, increase as compared to the osteoarthritis-induced control group",[4],68.81%
same,Maximum knee joint angle,[5],60.75 ± 6.78 °
same,knee joint angle decreased as compared to the normal control group,[5],18.18%
